Data taken from PubChem BioAssay AID1963438 (Molecular Pharmacology Branch, DTP, NCI, 2024).
Values belong to the compound of their own block, whether it stands above or below them.

Tested on: NCI-H510 multicellular tumor spheroid growth, % test/control
Assay: Anticancer human tumor NCI-H510 cell line growth inhibition [Asc];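 note: spheroids exposed to agents for 7 days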;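 for viability, T/C: 100% = DMSO vehicle control wells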
Conditions: for IC50: curve of first compound; for viability, T/C: stronger effect = lower value
How it was run: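 Tumor cells were grown as complex spheroids with human endothelial cells (HUVEC) and human mesenchymal stem cells as stroma. Agents were tested alone and in combination, in half-log steps down from the clinical Cmax, or from 10 microM where Cmax was unknown.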

[1] = second compound 0.1 µM, first compound 0.00316 µM
[2] = second compound 0.1 µM, first compound 0.01 µM
[3] = second compound 0.1 µM, first compound 0.0316 µM
[4] = second compound 0.1 µM, first compound 0.1 µM
[5] = second compound 0.1 µM, first compound 0.316 µM
[6] = second compound 0.1 µM, first compound 1 µM
[7] = second compound 0.316 µM, first compound 0.00316 µM
[8] = second compound 0.316 µM, first compound 0.01 µM
[9] = second compound 0.316 µM, first compound 0.0316 µM
[10] = second compound 0.316 µM, first compound 0.1 µM
[11] = second compound 0.316 µM, first compound 0.316 µM
[12] = second compound 0.316 µM, first compound 1 µM
[13] = second compound 1 µM, first compound 0.00316 µM
[14] = second compound 1 µM, first compound 0.01 µM
[15] = second compound 1 µM, first compound 0.0316 µM
[16] = second compound 1 µM, first compound 0.1 µM
[17] = second compound 1 µM, first compound 0.316 µM
[18] = second compound 1 µM, first compound 1 µM
[19] = second compound 0.01 µM, first compound 0.0316 µM
[20] = second compound 0.01 µM, first compound 0.1 µM
[21] = second compound 0.01 µM, first compound 0.316 µM
[22] = second compound 0.01 µM, first compound 1 µM
[23] = second compound 0.0316 µM, first compound 0.0316 µM
[24] = second compound 0.0316 µM, first compound 0.1 µM
[25] = second compound 0.0316 µM, first compound 0.316 µM
[26] = second compound 0.0316 µM, first compound 1 µM

- IC50 (second compound 0.1 µM): > 1 µM
- IC50 (second compound 0.316 µM): > 1 µM
- IC50 (second compound 1 µM): > 1 µM
- IC50 (second compound 3.16 µM): > 1 µM
- IC50 (second compound 10 µM): > 1 µM
SMILES: O=C(c1ccc(F)c(F)c1Nc1ccc(I)cc1F)N1CC(O)([C@@H]2CCCCN2)C1 + Cc1c(S(C)(=O)=O)c(-c2cc(F)cc(N3CCN(c4ccc(NS(=O)(=O)c5ccc(NC(CCN6CCC(C(=O)OCCCP(=O)(O)O)CC6)CSc6ccccc6)c(S(=O)(=O)C(F)(F)F)c5)cc4)CC3)c2)c(-c2ccc(Cl)cc2)n1C(C)C
- viability, T/C [1]: 113%
- viability, T/C [2]: 107%
- viability, T/C [3]: 115%
- viability, T/C [4]: 96.9%
- viability, T/C [5]: 90%
- viability, T/C [6]: 87.4%
- viability, T/C [7]: 124%
- viability, T/C [8]: 104%
- viability, T/C [9]: 113%
- viability, T/C [10]: 88.7%
- viability, T/C [11]: 58.7%
- viability, T/C [12]: 83%
- viability, T/C [13]: 99.7%
- viability, T/C [14]: 115%
- viability, T/C [15]: 126%
- viability, T/C [16]: 89.8%
- viability, T/C [17]: 86.9%
- viability, T/C [18]: 91.7%
- viability, T/C (second compound 3.16 µM, first compound 0.00316 µM): 107%
- viability, T/C (second compound 3.16 µM, first compound 0.01 µM): 88.1%
- viability, T/C (second compound 3.16 µM, first compound 0.0316 µM): 108%
- viability, T/C (second compound 3.16 µM, first compound 0.1 µM): 104%
- viability, T/C (second compound 3.16 µM, first compound 0.316 µM): 81.3%
- viability, T/C (second compound 3.16 µM, first compound 1 µM): 81.4%
- viability, T/C (second compound 10 µM, first compound 0.00316 µM): 74.7%
- viability, T/C (second compound 10 µM, first compound 0.01 µM): 105%
- viability, T/C (second compound 10 µM, first compound 0.0316 µM): 96.1%
- viability, T/C (second compound 10 µM, first compound 0.1 µM): 105%
- viability, T/C (second compound 10 µM, first compound 0.316 µM): 78.3%
- viability, T/C (second compound 10 µM, first compound 1 µM): 64.3%

- IC50 (second compound 0.01 µM): > 1 µM
- IC50 (second compound 0.0316 µM): > 1 µM
- IC50 (second compound 0.1 µM): > 1 µM
- IC50 (second compound 0.316 µM): > 1 µM
- IC50 (second compound 1 µM): > 1 µM
SMILES: CCN1CCN(Cc2ccc(Nc3ncc(F)c(-c4cc(F)c5nc(C)n(C(C)C)c5c4)n3)nc2)CC1 + CNC(C)C(=O)NC1CN(S(=O)(=O)c2cccc(S(=O)(=O)N3CCC4CCC(C(=O)NC(c5ccccc5)c5ccccc5)N4C(=O)C(NC(=O)C(C)NC)C3)c2)CCC2CCC(C(=O)NC(c3ccccc3)c3ccccc3)N2C1=O
- viability, T/C (second compound 0.01 µM, first compound 0.00316 µM): 109%
- viability, T/C (second compound 0.01 µM, first compound 0.01 µM): 117%
- viability, T/C [19]: 124%
- viability, T/C [20]: 112%
- viability, T/C [21]: 150%
- viability, T/C [22]: 128%
- viability, T/C (second compound 0.0316 µM, first compound 0.00316 µM): 108%
- viability, T/C (second compound 0.0316 µM, first compound 0.01 µM): 94%
- viability, T/C [23]: 114%
- viability, T/C [24]: 113%
- viability, T/C [25]: 117%
- viability, T/C [26]: 136%
- viability, T/C [1]: 113%
- viability, T/C [2]: 95.5%
- viability, T/C [3]: 99.3%
- viability, T/C [4]: 108%
- viability, T/C [5]: 108%
- viability, T/C [6]: 117%
- viability, T/C [7]: 114%
- viability, T/C [8]: 117%
- viability, T/C [9]: 110%
- viability, T/C [10]: 115%
- viability, T/C [11]: 107%
- viability, T/C [12]: 128%
- viability, T/C [13]: 111%
- viability, T/C [14]: 112%
- viability, T/C [15]: 107%
- viability, T/C [16]: 115%
- viability, T/C [17]: 123%
- viability, T/C [18]: 127%

- IC50 (second compound 0.01 µM): 9.49 µM
- IC50 (second compound 0.0316 µM): 8.07 µM
- IC50 (second compound 0.1 µM): 8.9 µM
- IC50 (second compound 0.316 µM): 9.8 µM
- IC50 (second compound 1 µM): > 10 µM
SMILES: O=C(c1cc(Cc2n[nH]c(=O)c3ccccc23)ccc1F)N1CCN(C(=O)C2CC2)CC1 + CNC(C)C(=O)NC1CN(S(=O)(=O)c2cccc(S(=O)(=O)N3CCC4CCC(C(=O)NC(c5ccccc5)c5ccccc5)N4C(=O)C(NC(=O)C(C)NC)C3)c2)CCC2CCC(C(=O)NC(c3ccccc3)c3ccccc3)N2C1=O
- viability, T/C [19]: 103%
- viability, T/C [20]: 98.5%
- viability, T/C [21]: 110%
- viability, T/C [22]: 91.7%
- viability, T/C (second compound 0.01 µM, first compound 3.16 µM): 89.4%
- viability, T/C (second compound 0.01 µM, first compound 10 µM): 47.9%
- viability, T/C [23]: 99.8%
- viability, T/C [24]: 101%
- viability, T/C [25]: 96.2%
- viability, T/C [26]: 109%
- viability, T/C (second compound 0.0316 µM, first compound 3.16 µM): 95%
- viability, T/C (second compound 0.0316 µM, first compound 10 µM): 39.7%
- viability, T/C [3]: 90.3%
- viability, T/C [4]: 89.2%
- viability, T/C [5]: 83.2%
- viability, T/C [6]: 114%
- viability, T/C (second compound 0.1 µM, first compound 3.16 µM): 91.8%
- viability, T/C (second compound 0.1 µM, first compound 10 µM): 45.3%
- viability, T/C [9]: 97.8%
- viability, T/C [10]: 107%
- viability, T/C [11]: 117%
- viability, T/C [12]: 87.5%
- viability, T/C (second compound 0.316 µM, first compound 3.16 µM): 89.1%
- viability, T/C (second compound 0.316 µM, first compound 10 µM): 48.9%
- viability, T/C [15]: 112%
- viability, T/C [16]: 110%
- viability, T/C [17]: 104%
- viability, T/C [18]: 101%
- viability, T/C (second compound 1 µM, first compound 3.16 µM): 92.1%
- viability, T/C (second compound 1 µM, first compound 10 µM): 58%
